The source of these data is patent publication US20230190717A1, “P38 GAMMA INHIBITORS AND METHOD OF USE THEREOF” (City of Hope, priority 2017, published 2023).

In one experiment the test system is Hut78 cells. Briefly: CellTiterGlo cell viability, Hut78. The format is cell-based, human. In general terms: Cellular ATP, detected with luciferase, serves as a proxy for viable cell number.
A further experiment has as its target PI3K p110γ (Homo sapiens, UniProt P48736). As to conditions: summarized from Selleck and Apexbio; read-out: IC50 of PI3K Isoforms, p110γ; cited from earlier work.
Experiment [1] has as its system normal CD4+ T cells from healthy donors. Briefly: Cell viability, healthy CD4+ T cells. The format is cell-based, human. The settings on record: 100 nM. The method, then: Compound, Samples, and Cell Culture: […] Isolation of PBMCs or CD4^+T cells from both patients and healthy donors and culture of CTCL cell lines (Hut78, HH, and H9) were performed as previously described.

Experiment [2] has as its system phosphorylation of DLGH1 at Ser158. Briefly: Western blot of pDLGH1-Ser158 in CTCL cells. The format is cell-based, human. The settings on record: SS cells, Hut78 and H9 cells; 50-100 nM. (In general: A western blot detects proteins with antibodies after separation by electrophoresis.)
Description: Western blot: Western blots were performed as described previously [5]. Rabbit primary antibodies (Cell Signaling Technology (CST), Danvers, Mass.) were used at the following dilutions: anti-p38α, -p38β, -p38γ, and -p38δ (1:1000), anti-B-tubulin (1:2000), anti-p38 GAPDH 1:1000. […] For detection of p38γ protein level in SS patient samples we used a monoclonal antibody that close to N-terminus of human p38γ MAPK (SAPK3) from Abcam ((ab205926).
A further experiment has as its system HH cells. Description: HH cell proliferation (cell number). The format is cell-based, human. As to conditions: 100 nM and 300 nM, four days.
A further experiment has as its target T1, p38δ (Homo sapiens, UniProt O15264).
T1 sequence (O15264 1-365): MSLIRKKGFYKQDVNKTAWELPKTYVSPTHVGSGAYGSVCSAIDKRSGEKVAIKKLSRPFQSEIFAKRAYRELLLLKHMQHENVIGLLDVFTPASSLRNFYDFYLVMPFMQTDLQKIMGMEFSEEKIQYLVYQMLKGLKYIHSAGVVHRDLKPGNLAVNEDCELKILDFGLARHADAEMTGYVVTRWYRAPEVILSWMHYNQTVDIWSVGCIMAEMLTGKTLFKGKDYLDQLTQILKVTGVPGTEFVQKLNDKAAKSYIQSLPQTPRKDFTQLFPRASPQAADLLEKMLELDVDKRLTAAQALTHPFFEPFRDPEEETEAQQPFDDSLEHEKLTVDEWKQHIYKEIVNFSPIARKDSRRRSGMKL
Briefly: ADP-Glo in vitro kinase assay, p38δ. The format is biochemical. The arrangement: human recombinant p38 α, β, γ or δ protein (active full-length); purchased SignalChem; host or cells: baculovirus in Sf9 insect cells. The method, then:
(§1) Kinase assay in vitro: Kinase enzyme assays in vitro were performed using ADP-Glo kit (Promega, Wis.). The luminescent ADP-Glo kinase assay measures ADP produced from ATP consumption in a kinase enzyme reaction. All compounds have been tested and shown no inhibition to luciferase activities. Briefly, in this experiment, human recombinant p38 α, β, γ or δ protein (active full-length) expressed by baculovirus in sf9 insect cells (SignalChem, Vancouver, Canada) was homogenized in wells of white opaque 96-well microplates with the kinase buffer that consisted of 40 mM Tris-HCl (pH 7.5), 20 mM MgCl2, 0.1 mg/mL BSA and 50 μM DTT. […] Next, synthetic peptide substrates ([…]) were added to the mixture at final concentration of 0.2 μg/μL, followed by adding ATP at various concentrations. The 50 μL mixture was reacted at room temperature for 60 min. […]
(§2) In vitro kinase assay (ADP-GLO): We identified p38γ inhibitors using in vitro kinase assay by screening a library of kinase inhibitors: The library consists of 244 compounds on three plates (EMD Cat #539744, #539745, and #539746) that are mostly ATP mimics. […] IC50 values were determined using […] software (Biosoft, Cambridge, United Kingdom).
Background: ADP-Glo turns the ADP formed in a reaction into a luminescent signal.

Experiment [3] concerns the target T2, human recombinant p38 α protein (Homo sapiens, UniProt Q16539).
T2 construct: human recombinant p38 α, β, γ or δ protein (active full-length); purchased SignalChem; host or cells: baculovirus in Sf9 insect cells
Briefly: ADP-Glo in vitro kinase assay, p38α. The format is biochemical. The method, then: as §1, §2

The test system of the next experiment is SS patient cells. Description: Cell viability, SS patient cells. As to conditions: SS patient cells (n=2), 100 nM. The format is cell-based, human. How it is done:
Compound, Samples, and Cell Culture: […] Isolation of PBMCs or CD4^+T cells from both patients and healthy donors and culture of CTCL cell lines (Hut78, HH, and H9) were performed as previously described. […] IC50 values were determined using […] software (Biosoft).

T2 sequence (Q16539 whole entry): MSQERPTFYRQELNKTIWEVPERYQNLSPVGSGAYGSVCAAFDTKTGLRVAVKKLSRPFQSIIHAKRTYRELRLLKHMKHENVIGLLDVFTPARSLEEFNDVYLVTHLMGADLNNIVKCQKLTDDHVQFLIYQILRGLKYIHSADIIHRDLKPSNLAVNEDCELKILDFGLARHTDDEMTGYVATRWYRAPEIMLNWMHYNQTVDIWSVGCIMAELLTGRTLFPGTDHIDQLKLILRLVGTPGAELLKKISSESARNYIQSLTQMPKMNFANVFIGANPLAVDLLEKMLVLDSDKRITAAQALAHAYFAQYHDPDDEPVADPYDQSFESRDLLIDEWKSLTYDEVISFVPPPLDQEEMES
Chain of PI3K p110γ (P48736 whole entry, canonical isoform): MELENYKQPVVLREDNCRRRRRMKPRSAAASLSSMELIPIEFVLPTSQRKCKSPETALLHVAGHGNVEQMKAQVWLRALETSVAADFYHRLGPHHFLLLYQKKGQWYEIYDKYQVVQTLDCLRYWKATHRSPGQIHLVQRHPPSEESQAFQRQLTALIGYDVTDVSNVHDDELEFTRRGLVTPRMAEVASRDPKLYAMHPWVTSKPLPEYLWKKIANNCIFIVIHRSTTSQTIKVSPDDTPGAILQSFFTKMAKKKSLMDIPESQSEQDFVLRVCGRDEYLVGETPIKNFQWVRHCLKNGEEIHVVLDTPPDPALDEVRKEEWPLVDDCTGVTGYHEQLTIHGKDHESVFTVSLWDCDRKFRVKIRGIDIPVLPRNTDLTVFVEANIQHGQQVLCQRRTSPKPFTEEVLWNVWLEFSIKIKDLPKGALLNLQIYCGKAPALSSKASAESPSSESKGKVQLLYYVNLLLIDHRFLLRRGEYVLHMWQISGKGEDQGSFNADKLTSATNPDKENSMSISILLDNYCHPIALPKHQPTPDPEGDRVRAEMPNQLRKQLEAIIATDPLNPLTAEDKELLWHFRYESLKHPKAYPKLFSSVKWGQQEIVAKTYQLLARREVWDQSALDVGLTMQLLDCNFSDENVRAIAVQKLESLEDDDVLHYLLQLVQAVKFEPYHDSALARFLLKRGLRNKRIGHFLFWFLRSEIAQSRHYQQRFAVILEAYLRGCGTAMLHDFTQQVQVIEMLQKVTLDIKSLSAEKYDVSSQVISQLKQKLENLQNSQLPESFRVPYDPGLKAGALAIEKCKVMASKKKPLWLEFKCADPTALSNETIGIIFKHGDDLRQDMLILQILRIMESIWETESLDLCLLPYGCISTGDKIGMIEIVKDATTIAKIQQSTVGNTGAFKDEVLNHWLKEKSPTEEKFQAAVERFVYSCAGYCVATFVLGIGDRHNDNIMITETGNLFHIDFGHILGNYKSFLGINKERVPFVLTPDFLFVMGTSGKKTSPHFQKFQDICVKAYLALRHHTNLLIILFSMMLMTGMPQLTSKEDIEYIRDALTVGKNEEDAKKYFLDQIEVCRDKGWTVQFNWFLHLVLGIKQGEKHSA
Description for Hut78 cells: Viability assays using trypan blue exclusion and CellTiterGlo Cell Viability Assay: Cell viability was calculated by diluting cell suspensions 1:1 in 0.4% TRYPAN BLUE solution (Sigma, St. Louis, Mo.) and counting the number of viable cells using a TC20™ automated cell counter (Bio-Rad, Irvine, Calif.) that automatically excludes the number of non-viable cells stained with trypan blue per total cells. […] All data points are an average of triplicate experiments.
Absorbance was monitored at 490 nm using an automated BMG PHERAstar plate reader (BMG Labtech). […] All experiments are repeated in three independent experiments and data represented are the average of triplicate experiments.

As to `Cc1ccc([N+](=O)[O-])cc1S(=O)(=O)N(C)/N=C/c1cnc2ccc(Br)cn12` [Compound 1], the cell viability entry with Hut78 cells (Hut78, 100 nM) is “significantly reduced viability”; in experiment [1], “spared”; in the experiment with SS patient cells it was “significantly reduced viability”. In the experiment with Hut78 cells (varying concentrations, 72 hr), the “effect on viability of Hut78 cells” value is “dose-dependent inhibition of cell viability”. For the same compound, the IC50 (commonly the concentration needed to halve the response being measured) on PI3K p110γ was 76 nM; on p38δ it was 32.1 to 120 nM. Further, in experiment [2], the “phosphorylation of DLGH1 at Ser158” value is recorded as “inhibited phosphorylation of DLGH1 at Ser158”. In addition, the “proliferation of HH cells” value in the experiment on HH cells is “sufficiently reduced proliferation”. The “dose-dependent inhibition of kinase activity” value in experiment [3] is reported as “not”.
